{"source": "patent EP2386631A1", "about": "“Purified lipase, methods of modification and applications” (Universiti Putra Malaysia, priority 2010, dated 2011)", "key": {"205y lipase (-SP/TM) [1]": {"test_system": "205y lipase (-SP/TM)", "assay": "Effect of surfactants on lipase activity", "type": "biochemical, Bacillus sphaericus 205y", "settings": "0.1% surfactant (text: 1 mM), 37°C, 30 min prior to lipase assay, mean ± SD, n=3", "procedure": "The activity of 205y lipase (-SP/TM) towards surfactants was determined by preincubating the enzyme with various surfactants at a concentration of 1 mM at 37°C for 30 min. The surfactants used were Tween 20, Tween 40, Tween 60, Tween 80, Triton X-100, sodium dodecyl sulphate (SDS) and sodium lauryl sulphate (SLS). Residual activity was measured colorimetrically and expressed as percentage of activity without surfactant. […]. Table 7. Effect of surfactants on 205y lipase (-SP/TM) activity"}, "205y lipase (-SP/TM) [2]": {"test_system": "205y lipase (-SP/TM)", "assay": "Effect of organic solvents on lipase activity", "type": "biochemical, Bacillus sphaericus 205y", "settings": "enzyme:solvent 3:1 v/v, 37°C, 30 min; relative to activity without organic solvent", "procedure": "The activity of 205 lipase (-SP/TM) towards the presence of organic solvents was tested by preincubating a mixture of purified enzyme with organic solvents (3:1, v/v) for 30 min at agitation rate of 200 rpm. Residual activity was measured at optimum temperature and expressed as percentage of activity without organic solvent. […] Mixture of enzyme and organic solvent (3:1 v/v) was incubated at 37°C for 30 min and the residual activity was measured using spectrophotometric method."}, "[3]": {"settings": "cited from earlier work"}, "[4]": {"test_system": "wild type organic solvent stable lipase secreted by Bacillus sphaericus 205y", "settings": "presence of the solvent; cited from earlier work"}, "205y lipase (-SP/TM) [5]": {"test_system": "205y lipase (-SP/TM)", "assay": "Effect of metal ions on lipase activity", "type": "biochemical, Bacillus sphaericus 205y", "settings": "1 mM metal chloride, 50 mM potassium phosphate buffer pH 8.0, 37°C, 30 min", "procedure": "The effect of metal ions on lipase activity was investigated by treating 205y lipase (-SP/TM) with 1 mM and 10 mM of various metal chlorides ( Na^+, K^+, Mg^2+, Ca^2+, Fe^2+, Mn^2+, Zn^2+ and Cu^2+) in 50 mM potassium phosphate buffer pH 8.0 at 37°C for 30 min. The mixture was subjected to lipase assay after treatment and expressed as a percentage of activity without the metal chloride."}, "205y lipase (-SP/TM) [6]": {"test_system": "205y lipase (-SP/TM)", "assay": "Effect of inhibitors on lipase activity", "type": "biochemical, Bacillus sphaericus 205y", "settings": "for Relative activity (100%): 37°C, 30 min prior to lipase assay, mean ± SD, n=3", "procedure": "The effect of inhibitors were tested on 205y lipase (-SP/TM) activity by preincubating the enzyme with dithiothreitol (DTT), β-mercaptoethanol, phenylmethylsulfonyl fluoride (PMSF), ethylenediaminetetraacetic acid ([…]) except for pepstatin A (1 mM). The residual activity was measured at optimum temperature and expressed as percentage of activity without inhibitor."}}, "note": "Values joined by “and” are separate entries in the source; they are usually repeats but may differ in a detail not shown here. Equal values may be shown once. Square brackets hold non-standard residues; d marks the D form. Peptide text beside a SMILES is read from it. * marks the point of attachment. Sta = CC(C)C[C@H](N)[C@@H](O)CC(=O)O; Isovaleryl = CC(C)CC(=O)*", "data": [{"compound": "CCCCCCCCCCCCOS(=O)(=O)[O-].[Na+]", "note": "[SDS, sodium dodecyl sulphate]", "values": [{"measurement": "Relative activity (100%)", "setting": "205y lipase (-SP/TM) [1]; sulphate", "result": "28.9 ± 2.8", "unit": "%"}]}, {"compound": "CCCCCCCCCCCC", "note": "[n-dodecane]", "values": [{"measurement": "lost in activity", "setting": "205y lipase (-SP/TM) [2]", "result": "more than 50%"}, {"measurement": "log P", "setting": "[3]", "result": 6.6}]}, {"compound": "Cc1ccc(C)cc1", "note": "[p-xylene]", "values": [{"measurement": "enzyme activity enhanced", "setting": "[4]", "result": 2.9, "unit": "fold"}, {"measurement": "lost in activity", "setting": "205y lipase (-SP/TM) [2]", "result": "more than 50%"}, {"measurement": "log P", "setting": "[3]", "result": 3.1}]}, {"compound": "Tween 60", "values": [{"measurement": "Relative activity (100%)", "setting": "205y lipase (-SP/TM) [1]", "result": "34.0 ± 3.5", "unit": "%"}]}, {"compound": "CCCCCCCCCC", "note": "[n-decane]", "values": [{"measurement": "enhancement in activity", "setting": "205y lipase (-SP/TM) [2]", "result": "more than 30%"}, {"measurement": "log P", "setting": "[3]", "result": 5.6}]}, {"compound": "[Mg+2]", "note": "[Mg^2+]", "values": [{"measurement": "effect on lipase activity", "setting": "205y lipase (-SP/TM) [5]", "result": "promoted"}]}, {"compound": "CC#N", "note": "[acetonitrile]", "values": [{"measurement": "effect on lipase activity", "setting": "[4]", "result": "complete deactivation"}, {"measurement": "enhancement in activity", "setting": "205y lipase (-SP/TM) [2]", "result": "more than 30%"}, {"measurement": "log P", "setting": "[3]", "result": -0.15}]}, {"compound": "CC(C)CC(=O)N[C@H](C(=O)N[C@H](C(=O)N[C@@H](CC(C)C)[C@@H](O)CC(=O)N[C@@H](C)C(=O)N[C@@H](CC(C)C)[C@@H](O)CC(=O)O)C(C)C)C(C)C", "note": "[Pepstatin A, pepstatin A] (Isovaleryl-VV[Sta]A[Sta]-OH)", "values": [{"measurement": "Relative activity (100%)", "setting": "205y lipase (-SP/TM) [6]; 1 mM inhibitor", "result": "86.9 ± 1.5", "unit": "%"}]}, {"compound": "CCCCCC", "note": "[n-hexane]", "values": [{"measurement": "enzyme activity enhanced", "setting": "[4]", "result": 3.5, "unit": "fold"}]}, {"compound": "Triton X-100", "values": [{"measurement": "Relative activity (100%)", "setting": "205y lipase (-SP/TM) [1]", "result": "47.3 ± 4.4", "unit": "%"}]}, {"compound": "[Ca+2]", "note": "[Ca^2+]", "values": [{"measurement": "effect on lipase activity", "setting": "205y lipase (-SP/TM) [5]", "result": "promoted"}]}, {"compound": "CCCCCCCCCCCCOS(=O)(=O)[O-].[Na+]", "note": "[SLS, sodium lauryl sulphate]", "values": [{"measurement": "Relative activity (100%)", "setting": "205y lipase (-SP/TM) [1]; sulphate", "result": "52.5% and 52.5 ± 1.9%"}]}, {"compound": "n-butanol", "values": [{"measurement": "lost in activity", "setting": "205y lipase (-SP/TM) [2]", "result": "more than 50%"}]}, {"compound": "[Zn+2]", "note": "[Zn^2+]", "values": [{"measurement": "activity retained", "setting": "205y lipase (-SP/TM) [5]", "result": "> 50", "unit": "%"}]}, {"compound": "OCCS", "note": "[β-mercaptoethanol]", "values": [{"measurement": "inhibition", "setting": "205y lipase (-SP/TM) [6]; 1 mM inhibitor", "result": 2.8, "unit": "%"}, {"measurement": "Relative activity (100%)", "setting": "205y lipase (-SP/TM) [6]; 1 mM inhibitor", "result": "97.2 ± 2.7", "unit": "%"}, {"measurement": "Relative activity (100%)", "setting": "205y lipase (-SP/TM) [6]; 10 mM inhibitor", "result": "76.3 ± 1.2", "unit": "%"}]}, {"compound": "O=S(=O)(F)Cc1ccccc1", "note": "[PMSF, phenylmethylsulfonyl fluoride]", "values": [{"measurement": "Relative activity (100%)", "setting": "205y lipase (-SP/TM) [6]; 1 mM inhibitor", "result": "74.0 ± 3.3", "unit": "%"}, {"measurement": "Relative activity (100%)", "setting": "205y lipase (-SP/TM) [6]; 10 mM inhibitor", "result": "70.3 ± 2.8", "unit": "%"}]}, {"compound": "CCO", "note": "[ethanol]", "values": [{"measurement": "enhancement in activity", "setting": "205y lipase (-SP/TM) [2]", "result": "more than 30%"}]}, {"compound": "[Cu+2]", "note": "[Cu^2+]", "values": [{"measurement": "activity retained", "setting": "205y lipase (-SP/TM) [5]", "result": "> 50", "unit": "%"}]}, {"compound": "CCCCCCCCCCCCCCCC", "note": "[hexadecane]", "values": [{"measurement": "enhancement in activity", "setting": "205y lipase (-SP/TM) [2]", "result": "more than 30%"}, {"measurement": "log P", "setting": "[3]", "result": 8.8}]}, {"compound": "[K+]", "note": "[K^+]", "values": [{"measurement": "effect on lipase activity", "setting": "205y lipase (-SP/TM) [5]", "result": "promoted"}]}, {"compound": "CO", "note": "[methanol]", "values": [{"measurement": "enhancement in activity", "setting": "205y lipase (-SP/TM) [2]", "result": "more than 30%"}, {"measurement": "log P", "setting": "[3]", "result": -0.76}]}, {"compound": "[Fe+2]", "note": "[Fe^2+]", "values": [{"measurement": "activity retained", "setting": "205y lipase (-SP/TM) [5]", "result": "> 50", "unit": "%"}]}, {"compound": "[Mn+2]", "note": "[Mn^2+]", "values": [{"measurement": "activity retained", "setting": "205y lipase (-SP/TM) [5]", "result": "> 50", "unit": "%"}]}, {"compound": "Tween 40", "values": [{"measurement": "Relative activity (100%)", "setting": "205y lipase (-SP/TM) [1]", "result": "27.9 ± 1.7", "unit": "%"}]}, {"compound": "Cc1ccccc1", "note": "[toluene]", "values": [{"measurement": "lost in activity", "setting": "205y lipase (-SP/TM) [2]", "result": "more than 50%"}]}, {"compound": "O=C(O)CN(CCN(CC(=O)O)CC(=O)O)CC(=O)O", "note": "[EDTA, ethylenediaminetetraacetic acid]", "values": [{"measurement": "Relative activity (100%)", "setting": "205y lipase (-SP/TM) [6]; 1 mM inhibitor", "result": "78.2% and 78.2 ± 1.8%"}, {"measurement": "Relative activity (100%)", "setting": "205y lipase (-SP/TM) [6]; 10 mM inhibitor", "result": "40.1 ± 4.2", "unit": "%"}]}, {"compound": "Tween 20", "values": [{"measurement": "Relative activity (100%)", "setting": "205y lipase (-SP/TM) [1]", "result": "31.3 ± 1.1", "unit": "%"}]}, {"compound": "[Na+]", "note": "[Na^+]", "values": [{"measurement": "activity retained", "setting": "205y lipase (-SP/TM) [5]", "result": "> 50", "unit": "%"}]}, {"compound": "O[C@H](CS)[C@H](O)CS", "note": "(racemic) [DTT, dithiothreitol]", "values": [{"measurement": "inhibition", "setting": "205y lipase (-SP/TM) [6]; 1 mM inhibitor", "result": 16.6, "unit": "%"}, {"measurement": "Relative activity (100%)", "setting": "205y lipase (-SP/TM) [6]; 1 mM inhibitor", "result": "83.4 ± 2.0", "unit": "%"}, {"measurement": "Relative activity (100%)", "setting": "205y lipase (-SP/TM) [6]; 10 mM inhibitor", "result": "45.5 ± 2.5", "unit": "%"}]}, {"compound": "CCCCCCCCCCO", "note": "[1-decanol]", "values": [{"measurement": "lost in activity", "setting": "205y lipase (-SP/TM) [2]", "result": "more than 50%"}]}, {"compound": "C[S+](C)[O-]", "note": "[DMSO, dimethyl sulfoxide]", "values": [{"measurement": "lipase activity lost", "setting": "[4]", "result": "approximately 80%"}, {"measurement": "enhancement in activity", "setting": "205y lipase (-SP/TM) [2]", "result": "more than 30%"}]}, {"compound": "Tween 80", "values": [{"measurement": "Relative activity (100%)", "setting": "205y lipase (-SP/TM) [1]", "result": "29.4 ± 2.4", "unit": "%"}]}]}
